In US6444812B1, “Intermediate compounds in the preparation of farnnesyl transferase inhibiting 1,8-annelated quinolinone derivatives substituted with N-or C linked imidazoles” (Janssen Pharmaceutica N.V., priority 1997, dated 2002):

Columns and labels:
[1] = molecular target: T1, Human farnesyl protein transferase (Homo sapiens, UniProt P49354+P49356); assay: In Vitro Assay for Inhibition of Farnesyl Protein Transferase (scintillation proximity assay); type: biochemical; settings: concentration of test compound producing 50% inhibition of enzyme activity; 60 min at 37° C.
T1 construct: grown as monolayer cell cultures were used as a source of human enzyme; endogenous in cells; host or cells: KHOS (Kirsten virus transformed human osteosarcoma) cells from ATCC, grown as solid tumors in nude mice or as monolayer cultures; The enzyme was partially purified by a 30-50% ammonium sulfate cut and Q Fast Flow Sepharose
Protocol: “In Vitro Assay for Inhibition of Farnesyl Protein Transferase”
Human farnesyl protein transferase was prepared essentially as described (Y. Reiss et al., Methods: A Companion to Methods in Enzymology, vol. 1, 241-245, 1990). Kirsten virus transformed human osteosarcoma (KHOS) cells (American Type Culture Collection, Rockville, Md., USA) grown as solid tumors in nude mice or grown as monolayer cell cultures were used as a source of human enzyme. Briefly, cells or tumors were homogenized in buffer containing 50 mM Tris, 1 mM EDTA, 1 mM EGTA and 0.2 mM phenylmethylsulfonylfluoride (pH 7.5). The homogenates were centrifuged 28,000×g for 60 min and the supernatants collected. […] Fractions containing 4 to 5 ml volumes of column eluate were collected and analyzed for farnesyl protein transferase activity. […]
The activity of farnesyl protein transferase was measured using the Farnesyl Transferase [^3H] […] The amount of [^3H]-farnesyl-(Cys)-biotin lamin B peptide synthesized in the presence or absence of test compounds was quantified as cpm by counting on a Wallac Model 1480 Microbeta Liquid Scintillation Counter. […] The protein farnesyl transferase activity observed in the presence of test compound was normalized to farnesyl transferase activity in the presence of 10% DMSO and expressed as percent inhibition. […]

[2] = system: NIH 3T3 cells transformed by the T24 activated human H-ras gene; assay: Ras-Transformed Cell Phenotype Reversion Assay; type: cell-based, mouse; settings: cell counts after 72 hours proliferation
Text: “Ras-Transformed Cell Phenotype Reversion Assay”
Insertion of activated oncogenes such as the mutant ras gene into mouse NIH 3T3 cells converts the cells to a transformed phenotype. The cells become tumorigenic, display anchorage independent growth in semi-solid medium and lose contact inhibition. Loss of contact inhibition produces cell cultures which no longer form uniform monolayers. Rather, the cells pile up into multicellular nodules and grow to very high saturation densities in plastic tissue culture dishes. Agents such as protein farnesyl transferase inhibitors which revert the ras transformed phenotype restore the uniform monolayer growth pattern to cells in culture. This reversion is easily monitored by counting the number of cells in tissue culture plates. Transformed cells will achieve higher cell numbers than cells which have reverted to an untransformed phenotype. Compounds which revert the transformed phenotype should produce antitumor effects in tumors bearing ras gene mutations.
Compounds are screened in tissue culture in NIH 3T3 cells transformed by the T24 activated human H-ras gene. Cells are seeded at an initial density of 200,000 cells per well (9.6 cm^2 surface area) in six-well cluster tissue culture plates. Test compounds are immediately added to 3.0 ml cell growth medium in a 3.0 μl volume of DMSO, with a final concentration of DMSO in the cell growth medium of 0.1%. The test compounds are run at concentrations of 5, 10, 50, 100, and 500 nM along with a DMSO treated vehicle control. […] Then the cells are detached in 1.0 ml trypsin-EDTA cell dissociation medium and counted on a Coulter particle counter.
Cell numbers expressed as cells per well are measured using a Coulter Particle Counter.
All cell counts were corrected for the initial cell input density by subtracting 200,000.
Control cell counts=[cell counts from cells incubated with DMSO vehicle−200,000]
Test compound cell counts=[cell counts from cells incubated with test compound−200,000]. [formula]

[3] = system: T24 activated human H-ras gene transformed NIH 3T3 fibroblast cells (T24 cells); assay: Farnesyl Protein Transferase Inhibitor Secondary Tumor Model; type: in vivo, Nude mice; settings: po, 15 days of treatment
Text: “Farnesyl Protein Transferase Inhibitor Secondary Tumor Model”
The enzyme farnesyl protein transferase catalyzes the covalent attachment of a farnesyl moiety derived from farnesyl pyrophosphate to the oncogene product p21^ras. This directs p21^ras to attach to plasma membranes. Once attached to plasma membranes, mutant or oncogenic forms of p21^ras will provide a signal for the transformation and uncontrolled growth of malignant tumor cells. Therefore, inhibitors of protein farnesyltransferase will prevent the membrane attachment of p21^ras and inhibit growth of ras-transformed tumors.
Nude mice are inoculated with 1×10^6 of T24 activated human H-ras gene transformed NIH 3T3 fibroblast cells (T24 cells), subcutaneously in the inguinal region. After three days to allow tumors to become established, treatment with test compounds is begun via the oral route. The test compounds are dissolved in a 20% β-cyclodextrin in 0.1 N HCl solution and administered orally as 0.1 ml of compound solution per 10 g mouse body weight. Routinely used doses are 6.25, 12.5 and 25 mg/kg. Body weights and tumor sizes are monitored during the ensuing 15 days of treatment. At the end of treatment, animals are sacrificed and tumors are weighed.
The “mean vehicle treated tumor weight” is defined as the mean tumor weight from 10 to 15 mice […].
The “mean tumor weight” is defined as the mean tumor weight from 10 to 15 mice […]. [formula]

| SMILES | IC50 ([2]; NIH3T3) | melting point | also measured |
| --- | --- | --- | --- |
| O=c1cc(-c2cccc(Cl)c2)c2cc(C(c3ccc(Cl)cc3)n3ccnc3)cc3c2n1CCC3 (racemic) [Compound 36, (±)-7-(3-chlorophenyl)-9-[(4-chlorophenyl)-1H-imidazol-1-ylmethyl]-2,3-dihydro-1H,5H-benzo[ij]quinolizin-5-one] |  |  | IC50 [1]: 21 nM |
| Cn1cncc1C(c1ccc(Cl)cc1)c1cc2c3c(c1)c(-c1cccc(Cl)c1)cc(=S)n3CC2 (racemic) [Compound 27, (±)-6-(3-chlorophenyl)-8-[(4-chlorophenyl)(1-methyl-1H-imidazol-5-yl)methyl]-1,2-dihydro-4H-pyrrolo[3,2,1-ij]quinoline-4-thione] | 37.1 nM |  |  |
| Cn1cncc1C(N)(c1ccc(Cl)cc1)c1cc2c3c(c1)c(-c1cccc(Cl)c1)cc(=O)n3CC2 (racemic) [Compound 8, (±)-8-[amino(4-chlorophenyl)(1-methyl-1H-imidazol-5-yl)methyl]-6-(3-chlorophenyl)-1,2-dihydro-4H-pyrrolo[3,2,1-ij]quinolin-4-one] | 6.4 nM |  | % reduction final tumor weight ([3]; 6.25 mg/kg bid): 41%; % reduction final tumor weight ([3]; 12.25 mg/kg bid): 44%; % reduction final tumor weight ([3]; 25 mg/kg bid): 49% |
| Cn1cncc1C(O)(c1ccc(Cl)cc1)c1cc2[nH]c(=O)n3c(=O)cc(-c4cccc(Cl)c4)c(c1)c23 (racemic) [Compound 34, (±)-6-(3-chlorophenyl)-8-[(4-chlorophenyl)hydroxy(1-methyl-1H-imidzol-5-yl)methyl]-4H-imidazo[4,5,1-ij]quinoline-2,4(1H)-dione] |  |  | IC50 [2]: > 500 nM |
| Cn1cncc1C(c1ccc(Cl)cc1)c1cc2c3c(c1)c(-c1cccc(Cl)c1)cc(=O)n3CC2.O (racemic) (hydrate or solvate) [Compound 6, (±)-6-(3-chlorophenyl)-8-[(4-chlorophenyl)(1-methyl-1H-imidazol-5-yl)methyl]-1,2-dihydro-4H-pyrrolo[3,2,1-ij]quinolin-4-one monohydrate] |  | 147 °C |  |
| Cn1cncc1C(O)(c1ccc(Cl)cc1)c1cc2nc(-c3ccccc3)n3c(=O)cc(-c4cccc(Cl)c4)c(c1)c23 (racemic) [Compound 31, (±)-6-(3-chlorophenyl)-8-[(4-chlorophenyl)hydroxy(1-methyl-1H-imidazol-5-yl)methyl]-2-phenyl-4H-imidazo[4,5,1-ij]quinolin-4-one] | > 500 nM |  |  |
| Cn1cncc1C(O)(c1ccc(Cl)cc1)c1cc2c3c(c1)c(-c1cccc(Cl)c1)cc(=O)n3CC2 (racemic) [Compound 5, (±)-6-(3-chlorophenyl)-8-[(4-chlorophenyl)hydroxy(1-methyl-1H-imidazol-5-yl)methyl]-1,2-dihydro-4H-pyrrolo[3,2,1-ij]quinolin-4-one] | 7.8 nM | 213.6 °C |  |
| Cn1cncc1C(O)(c1ccc(Cl)cc1)c1cc2c3c(c1)c(-c1cccc(Cl)c1)cc(=O)n3CO2 (racemic) [Compound 15, (±)-6-(3-chlorophenyl)-8-[(4-chlorophenyl)hydroxy(1-methyl-1H-imidazol-5-yl)methyl]-2H,4H-oxazolo[5,4,3-ij]quinolin-4-one] | 48 nM |  |  |
| Cc1nc2cc(C(O)(c3ccc(Cl)cc3)c3cncn3C)cc3c(-c4cccc(Cl)c4)cc(=O)n1c23 (racemic) [Compound 30, (±)-6-(3-chlorophenyl)-8-[(4-chlorophenyl)hydroxy(1-methyl-1H-imidazol-5-yl)methyl]-2-methyl-4H-imidazo[4,5,1-ij]quinolin-4-one] | 373 nM | 170 °C |  |
| O=C1CC(c2cccc(Cl)c2)c2cc(C(c3ccc(Cl)cc3)n3ccnc3)cc3c2N1CCC3 (racemic) [Compound 37, (±)-7-(3-chlorophenyl)-9-[(4-chlorophenyl)-1H-imidazol-1-ylmethyl]-2,3,6,7-tetrahydro-1H,5H-benzo[ij]quinolizin-5-one] |  | 93.6 °C |  |
| Cn1cncc1C(O)(c1ccc(Cl)cc1)c1cc2nnn3c(=O)cc(-c4cccc(Cl)c4)c(c1)c23 (racemic) [Compound 35, (±)-6-(3-chlorophenyl)-8-[(4-chlorophenyl)hydroxy(1-methyl-1H-imidazol-5-yl)methyl]-4H-1,2,3-triazolo[4,5,1-ij]quinolin-4-one] | > 500 nM | 226 °C |  |
| O=c1cc(-c2cccc(Cl)c2)c2cc(C(c3ccc(Cl)cc3)n3ccnc3)cc3c2n1CC3 (centres unmarked) [Compound 38] |  |  | IC50 [1]: 15 nM |
| Cn1cncc1C(c1ccc(Cl)cc1)c1cc2c3c(c1)c(-c1cccc(Cl)c1)cc(=O)n3CC2 (racemic) [Compound 6, (±)-6-(3-chlorophenyl)-8-[(4-chlorophenyl)(1-methyl-1H-imidazol-5-yl)methyl]-1,2-dihydro-4H-pyrrolo[3,2,1-ij]quinolin-4-one monohydrate] | 32 nM |  |  |
| Cn1cncc1C(N)(c1ccc(Cl)cc1)c1cc2c3c(c1)c(-c1cccc(Cl)c1)cc(=O)n3CC2 (centres unmarked) [Compound 10, (B)-8-[amino(4-chlorophenyl)(1-methyl-1H-imidazol-5-yl)methyl]-6-(3-chlorophenyl)-1,2-dihydro-4H-pyrrolo[3,2,1-ij]quinolin-4-on] |  |  | IC50 [2]: 3.2 nM |
